Measurements published in PubChem BioAssay (NCI).
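Interpolation was linear, between the two tested concentrations surrounding the appropriate level; five concentrations were tested over 48 hours in 96-well plates. At the GI50, growth is halved. At the TGI there is no net growth.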

How the values were obtained:
Assay in all cases: DTP human tumour cell line panel, 48 h
UACC-257 melanoma = test system: UACC-257 melanoma
NCI-H460 lung = test system: NCI-H460 lung
RPMI-8226 leukemia = test system: RPMI-8226 leukemia
HOP-62 NSCLC = test system: HOP-62 NSCLC
IGROV1 ovarian = test system: IGROV1 ovarian
SNB-19 CNS = test system: SNB-19 CNS
OVCAR-8 ovarian = test system: OVCAR-8 ovarian
SF-539 CNS = test system: SF-539 CNS
HL-60(TB) leukemia = test system: HL-60(TB) leukemia
UO-31 renal = test system: UO-31 renal

Structure (SMILES) | GI50 (UACC-257 melanoma) [µM] | TGI (UACC-257 melanoma) [µM] | GI50 (NCI-H460 lung) [µM] | TGI (NCI-H460 lung) [µM] | GI50 (RPMI-8226 leukemia) [µM] | TGI (RPMI-8226 leukemia) [µM] | GI50 (HOP-62 NSCLC) [µM] | TGI (HOP-62 NSCLC) [µM] | GI50 (IGROV1 ovarian) [µM] | TGI (IGROV1 ovarian) [µM] | GI50 (SNB-19 CNS) [µM] | TGI (SNB-19 CNS) [µM] | GI50 (OVCAR-8 ovarian) [µM] | TGI (OVCAR-8 ovarian) [µM] | GI50 (SF-539 CNS) [µM] | TGI (SF-539 CNS) [µM] | GI50 (HL-60(TB) leukemia) [µM] | TGI (HL-60(TB) leukemia) [µM] | GI50 (UO-31 renal) [µM] | TGI (UO-31 renal) [µM]
CC(C)C[C@H](NC(=O)CCn1ccc2ncccc2c1=O)B(O)O | 8.25 | 44.1 | 31.9 | > 100 | 2.82 | > 27 | 21.7 | > 79 | 36.5 | > 94.3 | 32.6 | > 100 | 27.4 | > 100 | 2.96 | 9.03 | 6.88 | > 100 | 19.6 | > 100
Cc1ccccc1C(=O)Oc1ccc(OCc2ccccc2)cc1 | – | > 100 | – | > 100 | – | > 100 | – | > 100 | – | > 100 | – | > 100 | – | > 100 | – | > 100 | – | > 100 | – | > 100
OCC(O)C(O)C(O)c1nn(-c2ccccc2)c2nc3cc(Cl)c(Cl)cc3nc12 (stereo not given) | – | > 100 | – | > 100 | – | > 100 | – | > 100 | – | > 100 | – | > 100 | – | > 100 | – | 38.5 | – | 91.2 | – | > 100
O=C(CNc1ccc2c(=S)c3ccccc3[nH]c2c1)Nc1ccccc1-c1ccccc1NC(=O)CNc1ccc2c(=S)c3ccccc3[nH]c2c1 | – | 45.3 | – | 36.9 | – | 49.9 | – | 48.4 | – | 61 | – | 41 | – | 55.7 | – | 52 | – | 13.4 | – | 31.4
CC1(C(=O)O)CCOc2ccccc21 (stereo not given) | – | > 100 | – | > 100 | – | > 100 | – | > 100 | – | > 100 | – | > 100 | – | > 100 | – | > 100 | – | > 100 | – | > 100
COc1ccc2c(c1)c(-c1ccc(-c3cn(C)c4ccc(OC)cc34)[nH]1)cn2C | 13.7 | 38.7 | 4.09 | 19.5 | 1.28 | 3.38 | 10.1 | 33.5 | 1.89 | 4.35 | 3.34 | 14.4 | 2.71 | 12.2 | 1.92 | 3.96 | 2.36 | 5.69 | 1.42 | 2.83
O=C(COc1cccc(/C=C2\Oc3ccc4ccccc4c3C2=O)c1)c1ccc(Cl)cc1 | > 100 | > 100 | > 100 | > 100 | 1.66 | 6.62 | 7.09 | 32.4 | 0.246 | 9.14 | > 100 | > 100 | 15.4 | 41.9 | > 100 | > 100 | 16.1 | 90.9 | 50.2 | > 100
O=C(Nc1ccc(Br)cc1)C(=O)C(C(=O)c1ccccc1F)C1OC(=O)c2ccccc21 (stereo not given) | – | > 100 | – | > 100 | – | 64.8 | – | 50.8 | – | > 100 | – | > 100 | – | 70.3 | – | 66.9 | – | 75.6 | – | 56.6
